Literature values in patent US20200138036A1, “FUMIGANT FORMULATION” (Linde Aktiengesellschaft, priority 2017, published 2020).
Where a name gives a salt, the structure may show the parent alone.

Conditions: at 20° C.

CCOC=O [Ethyl formate]
vapour pressure: 25.9 kPa
